Measurements taken from US10159254B2, “Weed control methods” (Syngenta Participations AG, priority 2013, dated 2018).
Values joined by “and” are separate entries in the source; they are usually repeats but may differ in a detail not shown here. Identical values can stand only once.

Experiments:
[1] = test system: untransformed clonal tobacco plants (WT); assay: Wild type tobacco herbicide damage, mesotrione with or without Sequestrene 138; format: in vivo, Nicotiana tabacum cv Samsun (tobacco)
Method: Effect of Iron Chelates in Mitigating Foliar Bleaching Injury from HPPD Inhibiting Herbicides Across Various Transgenic HPPD Tolerant Tobacco Events Over-expressing HPPD Genes from Different Origins
This experiment is carried out to determine whether iron chelates can mitigate the bleaching injury from HPPD inhibiting herbicides across various transgenic HPPD tolerant tobacco events over-expressing HPPD genes from different origins. These experiments are conducted using three distinct HPPD-overexpressing Nicotiana tabacum cv Samsun (tobacco) lines, one over-expressing wheat HPPD, one overexpressing an Avena HPPD and one over-expressing a HPPD from a bacterial source, Pseudomonas florescens. For each transgenic line, five identical clonal plants were sprayed with each herbicide treatment. Two untransformed clonal tobacco plants are also sprayed ([…]) with each herbicide treatment. Assessments are carried out 3, 7 and 14 days after herbicide application.
All scores represent average % herbicide damage. […] An equivalent safening effect is not observed when the same chemical treatments are applied to wild type plants.

[2] = test system: HPPD-tolerant soybean event SYHT0H2; assay: Glasshouse: post-emergence HPPD herbicide damage with or without Sequestrene 138Fe, 7 DAA; format: in vivo; details: isoxaflutole, tembotrione
Method: (§1) Safening of Various HPPD-inhibiting Herbicides in HPPD-tolerant Soybean Events SYHT04R and SYHT0H2
(§2) An experiment is performed to determine whether the addition of chelating iron to the spray formulation can mitigate foliar bleaching injury from the HPPD herbicides mesotrione, bicyclopyrone, tembotrione, isoxaflutole, topramezone and pyrasulfatole when applied post-emergence to the HPPD-tolerant soybean events SYHT04R and SYHT0H2.
(§3) Soybean plants are grown in a glasshouse (24° C. day, 18° C. night; 65% relative humidity; 16 hour photoperiod). Two replicates are utilised in respect of SYHT0H2 (growth stage V1-V3) and three replicates are utilised in respect of SYHT04R (growth stage V1 to V3). Spray applications are applied post-emergence at […]. Herbicide damage was assessed 7 DAA (Days After Application).

[3] = test system: HPPD-tolerant soybean event SYHT04R; assay: as above; format: in vivo; details: isoxaflutole, tembotrione
Method: as §1, §2, §3

SYHT0H2 soybeans = assay: Greenhouse: tank-mix and sequential Sequestrene 138Fe, HPPD-inhibitor maximum injury; format: in vivo, soybean; details: mesotrione 420, bicyclopyrone 200, tembotrione 368 g ai/ha
Method: Effect of Tank-mix and Sequential Application of Sequestrene® 138 on Mesotrione (Applied as Callisto®)—Maximum Injury in SYHT0H2 Soybeans
An experiment is conducted in the greenhouse to determine the effect of chelated iron (Sequestrene 138Fe containing 6% iron) on HPPD-inhibitor injury to SYHT0H2 soybeans. Soybeans are grown in pots filled with a greenhouse potting mix. When the plants reach the V2-V3 stage, they are sprayed with an HPPD-inhibitor herbicide applied alone (Treatment 1), or in tank mixture with Sequestrene 138Fe (Treatment 2), or sequentially with Sequestrene 138Fe applied 1 day before the HPPD inhibitor (Treatment 3). Sequestrene 138Fe is applied at 2240 g/ha (equivalent to 134 g iron/ha). All treatments are applied with liquid ammonium sulfate @ 2.5% v/v and a non-ionic surfactant (NIS) @ 0.25% v/v in 150 L/ha water. Observations on percent injury are recorded 5, 11, or 22 days after treatment. Data presented are maximum injury observed during the trial.

[4] = Sequestrene 138Fe 1000 g/ha, g ai/ha: mesotrione 200, bicyclopyrone, pyrasulfatole 100, topramazone 50
[5] = Sequestrene 138Fe 1000 g/ha, g ai/ha: mesotrione 800, bicyclopyrone, pyrasulfatole 400, topramazone 200
[6] = no Sequestrene 138Fe, g ai/ha: mesotrione 200, bicyclopyrone, pyrasulfatole 100, topramazone 50
[7] = no Sequestrene 138Fe, g ai/ha: mesotrione 800, bicyclopyrone, pyrasulfatole 400, topramazone 200

SMILES: CS(=O)(=O)c1ccc(C(=O)C2C(=O)CCCC2=O)c([N+](=O)[O-])c1 [Mesotrione, mesotrione]
- % herbicide damage ([1]; Trt 1: mesotrione 50 gai/ha alone, 3DAA): 60% and 65%
- % herbicide damage ([1]; Trt 1: mesotrione 50 gai/ha alone, 7DAA): 80%
- % herbicide damage ([1]; Trt 1: mesotrione 50 gai/ha alone, 14DAA): 85%
- % herbicide damage ([1]; Trt 2: mesotrione 100 gai/ha alone, 3DAA): 70%
- % herbicide damage ([1]; Trt 2: mesotrione 100 gai/ha alone, 7DAA): 80%
- % herbicide damage ([1]; Trt 2: mesotrione 100 gai/ha alone, 14DAA): 85% and 90%
- % herbicide damage ([1]; Trt 3: mesotrione 150 gai/ha alone, 3DAA): 55% and 60%
- % herbicide damage ([1]; Trt 3: mesotrione 150 gai/ha alone, 7DAA): 80%
- % herbicide damage ([1]; Trt 3: mesotrione 150 gai/ha alone, 14DAA): 85%
- % herbicide damage ([1]; Trt 4: mesotrione 50 gai/ha + Sequestrene 138 1000 g/ha, 3DAA): 50%
- % herbicide damage ([1]; Trt 4: mesotrione 50 gai/ha + Sequestrene 138 1000 g/ha, 7DAA): 80%
- % herbicide damage ([1]; Trt 4: mesotrione 50 gai/ha + Sequestrene 138 1000 g/ha, 14DAA): 70% and 75%
- % herbicide damage ([1]; Trt 5: mesotrione 100 gai/ha + Sequestrene 138 1000 g/ha, 3DAA): 60%
- % herbicide damage ([1]; Trt 5: mesotrione 100 gai/ha + Sequestrene 138 1000 g/ha, 7DAA): 80%
- % herbicide damage ([1]; Trt 5: mesotrione 100 gai/ha + Sequestrene 138 1000 g/ha, 14DAA): 75% and 85%
- % herbicide damage ([1]; Trt 6: mesotrione 150 gai/ha + Sequestrene 138 1000 g/ha, 3DAA): 60%
- % herbicide damage ([1]; Trt 6: mesotrione 150 gai/ha + Sequestrene 138 1000 g/ha, 7DAA): 80%
- % herbicide damage ([1]; Trt 6: mesotrione 150 gai/ha + Sequestrene 138 1000 g/ha, 14DAA): 85%
- % herbicide damage ([1]; Trt 7: mesotrione 200 gai/ha alone, 3DAA): 60%
- % herbicide damage ([1]; Trt 7: mesotrione 200 gai/ha alone, 7DAA): 80%
- % herbicide damage ([1]; Trt 7: mesotrione 200 gai/ha alone, 14DAA): 85%
- % herbicide damage ([1]; Trt 8: mesotrione 300 gai/ha alone, 3DAA): 65%
- % herbicide damage ([1]; Trt 8: mesotrione 300 gai/ha alone, 7DAA): 80%
- % herbicide damage ([1]; Trt 8: mesotrione 300 gai/ha alone, 14DAA): 90% and 85%
- % herbicide damage ([1]; Trt 9: mesotrione 400 gai/ha alone, 3DAA): 55% and 60%
- % herbicide damage ([1]; Trt 9: mesotrione 400 gai/ha alone, 7DAA): 80%
- % herbicide damage ([1]; Trt 9: mesotrione 400 gai/ha alone, 14DAA): 85%
- % herbicide damage ([1]; Trt 10: mesotrione 200 gai/ha + Sequestrene 138 1000 g/ha, 3DAA): 55% and 60%
- % herbicide damage ([1]; Trt 10: mesotrione 200 gai/ha + Sequestrene 138 1000 g/ha, 7DAA): 80%
- % herbicide damage ([1]; Trt 10: mesotrione 200 gai/ha + Sequestrene 138 1000 g/ha, 14DAA): 85%
- % herbicide damage ([1]; Trt 11: mesotrione 300 gai/ha + Sequestrene 138 1000 g/ha, 3DAA): 50% and 60%
- % herbicide damage ([1]; Trt 11: mesotrione 300 gai/ha + Sequestrene 138 1000 g/ha, 7DAA): 80%
- % herbicide damage ([1]; Trt 11: mesotrione 300 gai/ha + Sequestrene 138 1000 g/ha, 14DAA): 90% and 85%
- % herbicide damage ([1]; Trt 12: mesotrione 400 gai/ha + Sequestrene 138 1000 g/ha, 3DAA): 55% and 60%
- % herbicide damage ([1]; Trt 12: mesotrione 400 gai/ha + Sequestrene 138 1000 g/ha, 7DAA): 80%
- % herbicide damage ([1]; Trt 12: mesotrione 400 gai/ha + Sequestrene 138 1000 g/ha, 14DAA): 90% and 85%
- % herbicide damage ([1]; Trt 13: mesotrione 400 gai/ha alone, 3DAA): 50% and 55%
- % herbicide damage ([1]; Trt 13: mesotrione 400 gai/ha alone, 7DAA): 80%
- % herbicide damage ([1]; Trt 13: mesotrione 400 gai/ha alone, 14DAA): 95% and 90%
- % herbicide damage ([1]; Trt 14: mesotrione 500 gai/ha alone, 3DAA): 55% and 60%
- % herbicide damage ([1]; Trt 14: mesotrione 500 gai/ha alone, 7DAA): 80%
- % herbicide damage ([1]; Trt 14: mesotrione 500 gai/ha alone, 14DAA): 85%
- % herbicide damage ([1]; Trt 15: mesotrione 600 gai/ha alone, 3DAA): 55%
- % herbicide damage ([1]; Trt 15: mesotrione 600 gai/ha alone, 7DAA): 80%
- % herbicide damage ([1]; Trt 15: mesotrione 600 gai/ha alone, 14DAA): 85%
- % herbicide damage ([1]; Trt 16: mesotrione 400 gai/ha + Sequestrene 138 1000 g/ha, 3DAA): 60% and 55%
- % herbicide damage ([1]; Trt 16: mesotrione 400 gai/ha + Sequestrene 138 1000 g/ha, 7DAA): 80%
- % herbicide damage ([1]; Trt 16: mesotrione 400 gai/ha + Sequestrene 138 1000 g/ha, 14DAA): 90% and 95%
- % herbicide damage ([1]; Trt 17: mesotrione 500 gai/ha + Sequestrene 138 1000 g/ha, 3DAA): 50% and 60%
- % herbicide damage ([1]; Trt 17: mesotrione 500 gai/ha + Sequestrene 138 1000 g/ha, 7DAA): 80%
- % herbicide damage ([1]; Trt 17: mesotrione 500 gai/ha + Sequestrene 138 1000 g/ha, 14DAA): 90%
- % herbicide damage ([1]; Trt 18: mesotrione 600 gai/ha + Sequestrene 138 1000 g/ha, 3DAA): 55%
- % herbicide damage ([1]; Trt 18: mesotrione 600 gai/ha + Sequestrene 138 1000 g/ha, 7DAA): 80%
- % herbicide damage ([1]; Trt 18: mesotrione 600 gai/ha + Sequestrene 138 1000 g/ha, 14DAA): 90% and 85%
- Herbicide damage SYHT0H2 [2, 4]: 3
- Herbicide damage SYHT0H2 [2, 5]: 18
- Herbicide damage SYHT0H2 [2, 6]: 13
- Herbicide damage SYHT0H2 [2, 7]: 23
- Herbicide damage SYHT04R [3, 4]: 2
- Herbicide damage SYHT04R [3, 5]: 17
- Herbicide damage SYHT04R [3, 6]: 8
- Herbicide damage SYHT04R [3, 7]: 32
- % Maximum Injury (SYHT0H2 soybeans; Sequestrene 138Fe 2240 g/ha applied 1 day before herbicide (Treatment 3, sequential)): 7%
- % Maximum Injury (SYHT0H2 soybeans; herbicide alone (Treatment 1), maximum of 5, 11, 22 days after treatment): 20%
- % Maximum Injury (SYHT0H2 soybeans; tank mix with Sequestrene 138Fe 2240 g/ha (Treatment 2, simultaneous)): 0%
